Experimental data from US20090068653A1, “BIOCHEMICAL AND GENETIC ANALYSIS FOR PREDICTION OF BREAST CANCER RISK” (priority 2006, published 2009).
Changes are numbered by the printed parent chain. Counter-ions that a name gives are not always drawn. Like-named read-outs stand apart in the source and are kept apart here.

Tests used:
[1] = test system: DNA; conditions: cited from earlier work
[2] = test system: renal cancer; conditions: hamster, in vivo; cited from earlier work
[3] = test system: renal DNA; conditions: in vivo; cited from earlier work
[4] = test system: DNA; conditions: cited from earlier work; remark: listed apart in the source
[5] = single oral doses; cited from earlier work
[6] = test system: incidence of breast cancer; conditions: large study of use to prevent and treat osteoporosis; cited from earlier work
[7] = test system: estrogen receptors; conditions: preclinical data; cited from earlier work
[8] = test system: CYP1B1 mRNA; conditions: primary cultures of normal human epidermal keratinocytes, 24-hour treatment; cited from earlier work
[9] = cited from earlier work
[10] = test system: rat mammary carcinoma induced by dimethylbenzanthracene (DMBA); conditions: cited from earlier work
[11] = cited from earlier work; remark: listed apart in the source
[12] = test system: breast cancer incidence; conditions: women at increased risk of the disease; cited from earlier work
[13] = test system: COMT; conditions: cited from earlier work
[14] = test system: CYP1A1

For `C[C@]12CC[C@@H]3C4=C(CC[C@H]3[C@@H]1CCC2=O)C(=O)C(=O)C=C4` [E1-3,4Q], the “levels of depurinating DNA adducts” value [1] is listed as “two to three orders of magnitude higher”.

In the case of `C[C@]12CC[C@@H]3c4ccc(O)c(O)c4CC[C@H]3[C@@H]1CC[C@@H]2O` [4-OHE2], the “induction of renal cancer” value [2] is given as “induced renal cancer”, the “levels of oxidized base 8-hydroxy-deoxyguanosine, oxidative DNA damage” value (“levels … oxidative DNA damage” below) [3] is given as “significantly increased” and the DNA single-strand breaks [4] is given as “induced DNA single-strand breaks”.

In the case of `O=C(c1ccc(OCCN2CCCCC2)cc1)c1c(-c2ccc(O)cc2)sc2cc(O)ccc12` [Raloxifene], the apparent oral clearance [5] is given as 44.1 L/kg per hour, the “incidence of breast cancer” value [6] is given as “reduce the incidence of breast cancer” and the “estrogen receptor action in uterine and breast tissues” value [7] is given as “estrogen antagonist”.

For `C[C@]12CC[C@@H]3C4=C(CC[C@H]3[C@@H]1CC[C@@H]2O)C(=O)C(=O)C=C4` [E2-3,4Q], the “levels of depurinating DNA adducts” value [1] is listed as “two to three orders of magnitude higher”.

In the case of `Clc1cc2c(cc1Cl)Oc1cc(Cl)c(Cl)cc1O2` [TCDD, 2,3,7,8-tetrachlorodibenzo-p-dioxin], the “increase of CYP1B1 mRNA levels” value [8] is listed as “approximately 100 fold”.

For `C[C@]12CC[C@@H]3c4cc(O)c(O)cc4CC[C@H]3[C@@H]1CC[C@@H]2O` [2-OHE2], the “induction of renal cancer” value [2] is given as “not”, the “levels … oxidative DNA damage” value [3] is given as “did not cause oxidative DNA damage” and the DNA single-strand breaks [4] is given as “negligible effect”.

In the case of `C[C@]12CC[C@@H]3c4ccc(O)c(O)c4CC[C@H]3[C@@H]1CCC2=O` [4-OHE1], the “induction of renal cancer” value [2] is listed as “induced renal cancer” and the “levels … oxidative DNA damage” value [3] is listed as “significantly increased”.

In the case of `O=C(c1ccc(OCCN2CCCCC2)cc1)c1c(-c2ccc(O)cc2)sc2cc(O)ccc12` [Raloxifene HCl, methanone, [6-hydroxy-2-(4-hydroxyphenyl)benzo[b]thien-3-yl]-[4-[2-(1-piperidinyl)ethoxy]phenyl]-hydrochloride], the solubility in water [9] is given as “very slightly soluble”.

For `CC/C(=C(\c1ccccc1)c1ccc(OCCN(C)C)cc1)c1ccccc1` [Tamoxifen, reference compound], the “induction of rat mammary carcinoma induced by DMBA” value ([10]; rat) is listed as “inhibits”, the “regression of DMBA-induced tumors in situ” value ([10]; rats) is listed as “causes the regression” and the “average steady-state plasma concentration” value ([11]; 10 mg tamoxifen twice daily for 3 months, patients) is listed as 120 ng/mL. For the same molecule, the “average steady-state plasma concentration” value ([11]; 20 mg tamoxifen once daily for 3 months) was 122 ng/mL, the “time to steady state concentrations after initiation of therapy” value ([11]; in vivo) was “about 4 weeks” and the “average peak plasma concentration” value ([11]; single oral dose of 20 mg tamoxifen) was 40 ng/mL. The “time of peak plasma concentration after dosing” value ([11]; single oral dose of 20 mg) was “approximately 5 hours” and the “reduction of breast cancer incidence” value [12] was 49%.

B1: 108Val (wt): wild-type COMT enzyme (protein, UniProt P21964 1-271, looked up)
Catechol O-methyltransferase: MPEAPPLLLAAVLLGLVLLVVLLLLLRHWGWGLCLIGWNEFILQPIHNLLMGDTKEQRILNHVLQHAEPGNAQSVLEAIDTYCEQKEWAMNVGDKKGKIVDAVIQEHQPSVLLELGAYCGYSAVRMARLLSPGARLITIEINPDCAAITQRMVDFAGVKDKVTLVVGASQDIIPQLKKKYDVDTLDMVFLDHWKDRYLPDTLLLEECGLLRKGTVLLADNVICPGAPDFLAHVRGSSCFECTHYQSFLEYREVVDGLEKAIYKGPGSEAGP
In the case of B1, the Km ([13]; reaction 2-OHE2 → 2-MeOE2, COMT) is given as 117 µM, the Km ([13]; reaction 2-OHE2 → 2-OH-3-MeOE2, COMT) is given as 51 µM and the Km ([13]; reaction 4-OHE2 → 4-MeOE2, COMT) is given as 24 µM.

B2: 461Thr-462Ile (wt*): purified recombinant wild-type CYP1A1 enzyme (protein, UniProt P04798 1-512, looked up)
Cytochrome P450 1A1: MLFPISMSATEFLLASVIFCLVFWVIRASRPQVPKGLKNPPGPWGWPLIGHMLTLGKNPHLALSRMSQQYGDVLQIRIGSTPVVVLSGLDTIRQALVRQGDDFKGRPDLYTFTLISNGQSMSFSPDSGPVWAARRRLAQNGLKSFSIASDPASSTSCYLEEHVSKEAEVLISTLQELMAGPGHFNPYRYVVVSVTNVICAICFGRRYDHNHQELLSLVNLNNNFGEVVGSGNPADFIPILRYLPNPSLNAFKDLNEKFYSFMQKMVKEHYKTFEKGHIRDITDSLIEHCQEKQLDENANVQLSDEKIINIVLDLFGAGFDTVTTAISWSLMYLVMNPRVQRKIQEELDTVIGRSRRPRLSDRSHLPYMEAFILETFRHSSFVPFTIPHSTTRDTSLKGFYIPKGRCVFVNQWQINHDQKLWVNPSEFLPERFLTPDGAIDKVLSEKVIIFGMGKRKCIGETIARWEVFLFLAILLQRVEFSVPLGVKVDMTPIYGLTMKHACCEHFQMQLRS
For B2, the Km [14] was 17 µM.

B3: 461Thr-462Val: purified recombinant CYP1A1 variant 462Ile→Val (protein, UniProt P04798 1-512, looked up, variant I462V)
Cytochrome P450 1A1: B2 Cytochrome P450 1A1 with I462V
Work on B3 yielded a Km [14] of 18 µM.

B4: 461Asn-462Ile: purified recombinant CYP1A1 variant 461Thr→Asn (protein, UniProt P04798 1-512, looked up, variant T461N)
Cytochrome P450 1A1: B2 Cytochrome P450 1A1 with T461N
In the case of B4, the Km [14] is reported as 23 µM.

B5: 461Asn-462Val: purified recombinant CYP1A1 variant 461Asn-462Val (protein, UniProt P04798 1-512, looked up, variant T461N I462V)
Cytochrome P450 1A1: B2 Cytochrome P450 1A1 with T461N, I462V
B5 gave a Km [14] of 23 µM.
